Where two headings read alike, the source gives them in different places.
Assays:
Assay type in all cases: cell-based, mice
[1] = tested on: LPS activated thioglyclolate peritoneal macrophages; assay: Cytokines and chemokines secreted from LPS activated thioglycolate peritoneal macrophages (Legendplex panels); settings: for GMCSF level, percentage of untreated control cells / IL1α level, percentage of untreated control cells / IL6 level, percentage of untreated control cells / IL12p70 level, percentage of untreated control cells / IL27 level, percentage of untreated control cells / MCP1 level, percentage of untreated control cells / MIP1β level, percentage of untreated control cells / CCL5 level, percentage of untreated control cells / MDC level, percentage of untreated control cells / MIP1α level, percentage of untreated control cells: 10 μM compound, 48 h; for IC50: Mus musculus, Peritoneal macrophage, read-out: IL6 IC50
Protocol: Activated peritoneal macrophages were isolated from the peritoneal lavage of C57BL/6 wild type mice, 5 days after the peritoneal administration of 3% Thioglucolate, as described in Jiménez-García et al., 2015. The isolated cells were seeded at a concentration of 5×10^5 cells/well in a 48 well plate. 4 h after isolation, cells were starved O/N in Optimem (Gibco, 11058, 100 U/ml P/S). The cells were further activated with 100 ng/ml Lipopolysaccharide (LPS, Sigma-Aldrich, L2630) along with the test compounds at a dose of 10 μM. 48 h later the supernatants of the cell cultures were collected and analyzed using the Mouse 13 plex Legendplex Chemokine (Biolegend, 740007) and Cytokine (Bioloegend, 740446) panels according the manufacturer's instructions.
The same protocol was repeated reducing the concentration of LPS to 10 ng/ml in order to determine the efficiency of the tested compounds.
In order to assess the anti-inflammatory activity of the compounds of the invention, their ability to reduce the levels of secreted cytokines and chemokines from activated macrophages, which are key inflammatory cells of the immune system, was measured. Test compounds 51, 52 and 53, E and F were tested at a dose of 10 μM on LPS induced thioglycolate derived peritoneal macrophages. Chemokine and cytokine analyses were performed using the Mouse pro-inflammatory panels from Legendplex and their levels are presented as a percentage of the levels detected in the untreated control cells (Tables 6a and 6b). Data presented for compounds 51, 52, 53 refer to LPS stimulation of 100 ng/ml, while compounds E and F were tested upon LPS stimulation of 10 ng/ml.

hTNF-activated wt SFs [2] = assay: CCL5 and CCL20 ELISA on hTNF-activated wild type synovial fibroblasts
Text: Primary SFs were derived from a) human TNF transgenic (hTNFTg) mice (Keffer et al., 1991) as well as from b) CBA/C57BL6 wild type mice.
By testing the compounds in a) and b) we accessed their effect on the activated SFs phenotype caused by both the endogenous hTNF upregulation and the exogenous hTNF administration. In this way it was confirm the ability of the compounds of the invention to act in the TNF pathway directly downstream of TNF.
(§1) SFs were isolated as previously described by Armaka et al., 2009, from the ankle joints of hTNFtg or CBA/C57BL6 wild type (wt) littermates. Briefly, ankle joints were digested with Collagenase IV (Sigma Aldrich, C5138) for 45 minutes at a 37° C. shaking waterbath and after 5 days in culture at 37° C. and 5% CO2, a depletion of CD45+ lineage cells was performed using a Biotin anti-mouse CD45 Antibody (Biolegend, 103104) and Dynabeads™ Biotin Binder (ThermoFisher 11047), according to the manufacturer's protocol. After 10 days in culture, SFs were seeded overnight (O/N) at a concentration of 2×10^4 cells/well in a 96 well plate in 1×DMEM, supplemented with 100 U/ml Penicillin Streptomycin (P/S) and 10% Fetal Bovine Serum (FBS). The next day the cells were synchronized by starvation that included their O/N plating in low serum medium (0.5% FBS). Following the O/N starvation, the hTNFg and the WT SFs were treated with different concentrations of the experimental compounds. The SFs were at the same time activated with 10 ng/ml hTNF (Peprotech, 300-01A). 48 h following the treatment the cell culture supernatants were collected and analyzed by ELISA (R&S Systems, Duoset, DY478 and DY760) according to the manufacturer's protocol, for the detection of CCL5/Rantes and CCL20/Mip3, two known inflammatory chemokines. The IC50 values were determined as the concentration of the compounds required to reduce the levels of secreted CCL5 and CCL20 by 50%.
In order to determine the efficiency of the compounds of the invention, the same protocol was repeated with some minor modifications. Mainly, the concentration of hTNF was 10-fold reduced, i.e., adjusted to 1 ng/ml, and the SFs were seeded overnight at a concentration of 10^4 cells/well.
Table 7 summarizes the reduction of CCL5 and CCL20 levels achieved with the test compounds of the invention. Data are presented as percentages of the chemokine levels detected in treated cells compared to 100% levels of the chemokines detected in the untreated cells.
Table 8 summarizes the values of IC50 and toxicity for the test compounds of the invention. Dose response curves regarding the WT SFs were produced with 10 ng/ml hTNF stimulation for all compounds, with the exception of the compounds E and F, where WT cells were induced using hTNF at 1 ng/ml: […]

hTNF-activated wt SFs [3] = assay: Legendplex pro-inflammatory chemokine panel on hTNF-activated wt synovial fibroblasts; settings: 10 ng/ml hTNF
Protocol: as §1
The supernatants of the SFs were also analyzed using the Mouse pro-inflammatory chemokine panel from Legendplex™ (Biolegend, 740007), according to manufacturer's instructions, for the simultaneous detection of 13 Mouse chemokines.
The anti-inflammatory potential of the test compounds 51, 52, 53, E and F on SFs was also assessed using the Mouse pro-inflammatory chemokine panel from Legendplex that allows the simultaneous detection of 13 Mouse chemokines. The effect of compound 51 on SFs was assessed at a dose of 25 μM, while the effect of the test compounds 52, 53, E and F was assessed at a dose of 10 μM. Numbers represent percentages of the chemokine levels secreted from the treated SFs compared to 100% levels of the chemokines detected in the untreated cells (i.e. either hTNFTg SFs or hTNF-activated wt SFs).
Table 9 summarizes the effect of the test compounds 51, 52 and 53, E and F on the inflammatory chemokines secreted from activated SFs. WT SFs were stimulated with 10 ng/ml hTNF.

[4] = 1 ng/mL hTNF, compound 10 μM, 48 h
[5] = 1 ng/mL hTNF, compound 50 μM, 48 h
[6] = 10 ng/mL hTNF, compound 10 μM, 48 h
[7] = 10 ng/mL hTNF, compound 50 μM, 48 h
[8] = Mus musculus, Fibroblast, 10 ng/ml hTNF stimulation, read-out: IC50 (μM) CCL5 WT
[9] = Mus musculus, Fibroblast, 10 ng/ml hTNF stimulation, read-out: IC50 (μM) CCL20 WT
[10] = 1 ng/mL hTNF, compound 25 μM, 48 h
[11] = 10 ng/mL hTNF, compound 25 μM, 48 h
[12] = Mus musculus, Fibroblast, hTNF at 1 ng/ml, read-out: IC50 (μM) CCL5 WT
[13] = Mus musculus, Fibroblast, hTNF at 1 ng/ml, read-out: IC50 (μM) CCL20 WT

Compound | GMCSF level, percentage of untreated control cells ([1]; LPS 100 ng/ml) [%] | IL1α level, percentage of untreated control cells ([1]; LPS 100 ng/ml) [%] | IL6 level, percentage of untreated control cells ([1]; LPS 100 ng/ml) [%] | IL12p70 level, percentage of untreated control cells ([1]; LPS 100 ng/ml) [%] | IL27 level, percentage of untreated control cells ([1]; LPS 100 ng/ml) [%] | MCP1 level, percentage of untreated control cells ([1]; LPS 100 ng/ml) [%] | MIP1β level, percentage of untreated control cells ([1]; LPS 100 ng/ml) [%] | CCL5 WT, percentage of level in untreated cells (hTNF-activated wt SFs [2]; [4]) [%] | CCL20 WT, percentage of level in untreated cells (hTNF-activated wt SFs [2]; [4]) [%] | CCL5 WT, percentage of level in untreated cells (hTNF-activated wt SFs [2]; [5]) [%] | CCL20 WT, percentage of level in untreated cells (hTNF-activated wt SFs [2]; [5]) [%] | CCL5 WT, percentage of level in untreated cells (hTNF-activated wt SFs [2]; [6]) [%] | CCL20 WT, percentage of level in untreated cells (hTNF-activated wt SFs [2]; [6]) [%] | CCL5 WT, percentage of level in untreated cells (hTNF-activated wt SFs [2]; [7]) [%] | CCL20 WT, percentage of level in untreated cells (hTNF-activated wt SFs [2]; [7]) [%] | IC50 (hTNF-activated wt SFs [2]; [8]) [µM] | IC50 (hTNF-activated wt SFs [2]; [9]) [µM] | EOTAXIN WT, percentage of level in untreated cells (hTNF-activated wt SFs [3]; compound 10 μM) [%] | KC WT, percentage of level in untreated cells (hTNF-activated wt SFs [3]; compound 10 μM) [%] | LIX WT, percentage of level in untreated cells (hTNF-activated wt SFs [3]; compound 10 μM) [%] | other results
COc1cc(N)c(Cl)cc1C(=O)NCC1(c2ccc(Cl)cc2)CCCCC1 [Compound 51, 4-amino-5-chloro-N-((1-(4-chlorophenyl)cyclohexyl)methyl)-2-methoxybenzamide] | 80 | 36 | 44 | 54 | 77 | 27 | 90 | 54 | 63 | 20 | 35 | 67 | 14 | 39 | 5 | 10.4 | 3 | – | – | – | EOTAXIN WT, percentage of level in untreated cells (hTNF-activated wt SFs [3]; compound 25 μM): 7%; KC WT, percentage of level in untreated cells (hTNF-activated wt SFs [3]; compound 25 μM): 41%; LIX WT, percentage of level in untreated cells (hTNF-activated wt SFs [3]; compound 25 μM): 3%; MCP1 WT, percentage of level in untreated cells (hTNF-activated wt SFs [3]; compound 25 μM): 59%
COc1cc(N)c(Cl)cc1C(=O)NCC1(c2ccc(Cl)cc2)CCCCCC1 [Compound 52, 4-amino-5-chloro-N-((1-(4-chlorophenyl)cycloheptyl)methyl)-2-methoxybenzamide] | 36 | 9 | 7 | 23 | 19 | 28 | 51 | 48 | 45 | 22 | – | 27 | 15 | 14 | – | 1.4 | 1.5 | 26 | 34 | 23 | activity at 50 µM (hTNF-activated wt SFs [2]; Mus musculus, Fibroblast, 48 h, 1 ng/mL hTNF, compound 50 μM, 48 h, read-out: CCL20 WT, percentage of level in untreated cells): 17%; MCP1 WT, percentage of level in untreated cells (hTNF-activated wt SFs [3]; compound 10 μM): 40%
COc1cc(N)c(Cl)cc1C(=O)NCC1(Nc2ccc(Cl)cc2)CCCCCC1 [Compound 53, 4-amino-5-chloro-N-((1-((4-chlorophenyl)amino)cycloheptyl)methyl)-2-methoxybenzamide] | 38 | 30 | 15 | 18 | 75 | 75 | 67 | 16 | 26 | 8 | 9 | 35 | 15 | 26 | 8 | 2.9 | 2.3 | 59 | 68 | 24 | CCL5 level, percentage of untreated control cells ([1]; LPS 100 ng/ml): 22%; MDC level, percentage of untreated control cells ([1]; LPS 100 ng/ml): 52%; MIP1α level, percentage of untreated control cells ([1]; LPS 100 ng/ml): 60%; MCP1 WT, percentage of level in untreated cells (hTNF-activated wt SFs [3]; compound 10 μM): 57%
COc1cc(N)c(Cl)cc1C(=O)NCC1(Nc2ccc(F)cc2Cl)CCCCCC1 [E, 4-amino-5-chloro-N-((1-((2-chloro-4-fluorophenyl)amino)cycloheptyl)methyl)-2-methoxybenzamide] | – | – | – | – | – | – | – | 0 | 2 | – | – | 13 | 5 | – | – | – | – | – | – | – | CCL5 level, percentage of untreated control cells ([1]; LPS 10 ng/ml): 8%; IL6 level, percentage of untreated control cells ([1]; LPS 10 ng/ml): 8.8%; MCP1 level, percentage of untreated control cells ([1]; LPS 10 ng/ml): 9.3%; MDC level, percentage of untreated control cells ([1]; LPS 10 ng/ml): 54%; MIP1α level, percentage of untreated control cells ([1]; LPS 10 ng/ml): 50%; MIP1β level, percentage of untreated control cells ([1]; LPS 10 ng/ml): 41%; IC50 ([1]; LPS 10 ng/ml): 570 nM; CCL5 WT, percentage of level in untreated cells (hTNF-activated wt SFs [2]; [10]): 0%; CCL20 WT, percentage of level in untreated cells (hTNF-activated wt SFs [2]; [10]): 3%; CCL5 WT, percentage of level in untreated cells (hTNF-activated wt SFs [2]; [11]): 11%; CCL20 WT, percentage of level in untreated cells (hTNF-activated wt SFs [2]; [11]): 2%; IC50 (hTNF-activated wt SFs [2]; [12]): 0.59 µM; IC50 (hTNF-activated wt SFs [2]; [13]): 0.167 µM
COc1cc(N)c(Cl)cc1C(=O)NCC1(Nc2cccc(OC(F)(F)F)c2)CCCCCC1 [F, 4-amino-5-chloro-2-methoxy-N-((1-((3-(trifluoromethoxy)phenyl)amino)cycloheptyl)methyl)benzamide] | – | – | – | – | – | – | – | 0 | – | – | – | 12 | – | – | – | – | – | – | – | – | CCL5 level, percentage of untreated control cells ([1]; LPS 10 ng/ml): 2%; IL6 level, percentage of untreated control cells ([1]; LPS 10 ng/ml): 5.3%; MCP1 level, percentage of untreated control cells ([1]; LPS 10 ng/ml): 9%; MDC level, percentage of untreated control cells ([1]; LPS 10 ng/ml): 47%; MIP1α level, percentage of untreated control cells ([1]; LPS 10 ng/ml): 45%; MIP1β level, percentage of untreated control cells ([1]; LPS 10 ng/ml): 26%; IC50 ([1]; LPS 10 ng/ml): 2670 nM; CCL5 WT, percentage of level in untreated cells (hTNF-activated wt SFs [2]; [10]): 0%; CCL20 WT, percentage of level in untreated cells (hTNF-activated wt SFs [2]; [10]): 7%; CCL5 WT, percentage of level in untreated cells (hTNF-activated wt SFs [2]; [11]): 9%; CCL20 WT, percentage of level in untreated cells (hTNF-activated wt SFs [2]; [11]): 10%; IC50 (hTNF-activated wt SFs [2]; [12]): 0.09 µM; IC50 (hTNF-activated wt SFs [2]; [13]): 0.129 µM
